Source: PMC11869560, “Anticancer and cancer preventive activities of shogaol and curcumin from Zingiberaceae family plants in KG-1a leukemic stem cells” (BMC Complementary Medicine and Therapies, 2025)
Values after ≈ are worked out from the molar mass of the structure shown. Where two headings read alike, the source gives them in different places.

Legend:
[1] = tested on: KG-1a cells; experiment: MTT cytotoxicity assay in KG-1a cells; type: cell-based, human; conditions: for Selectivity index (SI): IC50 for normal cells (PBMCs) / IC50 for cancer cells (KG-1a)
Method: (§1) MTT (3-(4,5-dimethylthiazol-2-yl)-2,5-diphenyltetrazolium bromide) assay was used to investigate the cytotoxicity of the test samples. KG-1a (1.5 × 10^4 cells/well), K562 (1.0 × 10^4 cells/well), PBMCs (1.0 × 10^5 cells/well), A549 (5.0 × 10^3 cells/well), MCF-7 (5.0 × 10^3 cells/well), and HeLa (5.0 × 10^3 cells/well) were seeded into a 96-well plate and incubated overnight at 37 °C with 5% CO2. […] After that, 5 mg/mL of MTT dye solution (Sigma-Aldrich, MA, USA) was added and incubated for 4 h. The produced formazan crystals were dissolved in 200 µL of DMSO (Sigma-Aldrich, MA, USA); then, the optical density (OD) was measured using an ELISA plate reader (Metertech, Taipei, Taiwan) at 578 nm with a reference wavelength of 630 nm. The percentage of surviving cells was calculated from the absorbance values of the test and control wells using the following Equation. 1 [drawing 1]
(§2) where ODsample is a mean absorbance in test well and ODvehicle control is a mean absorbance in VC well. The average percentage of surviving cells at each concentration obtained from triplicate experiments was plotted as a dose-response curve. Inhibitory concentration values at 50% growth (IC50 value) were defined as the lowest concentration of the test sample that inhibited cell growth by 50% compared to the untreated control.
(§3) To calculate IC50 values, a dose-response curve was fitted using non-linear regression analysis, as described in the GraphPad Prism guidelines (https://www.graphpad.com/support/faq/how-to-determine-an-icsub50sub/). The IC50 value was obtained by determining the point at which the curve intersected 50% growth inhibition. Non-linear regression graphs of the dose-response curve for each compound are provided in the supplementary data file (Figs. S1–S8).
where IC50 N is IC50 for normal cells and IC50 C is IC50 for cancer cells which were treated with the same compounds in both cells.

[2] = tested on: PBMCs; experiment: MTT cytotoxicity assay in PBMCs; type: cell-based, human; conditions: Homo sapiens, PBMC
Method: PBMCs were isolated from blood samples using the Ficoll-Hypaque technique. Initially, 10–20 mL of blood was collected in a heparin tube at a ratio of 1:500 from a minimum of three healthy volunteers. Subsequently, the blood samples were diluted with Phosphate buffer saline (PBS), pH 7.4, at a ratio of 1:1 to reduce viscosity. Histopaque-1077 (Sigma-Aldrich, MA, USA) was then underlaid the diluted sample and centrifuged at 400×g for 30 min. The resulting PBMCs were collected, washed with PBS, pH 7.4, and prepared for further experiments.
as §1, §2, §3

[3] = tested on: KG-1a cells; experiment: Trypan blue exclusion test, cell numbers of KG-1a cells; type: cell-based, human; conditions: IC20 concentrations, 48 h
Method: (§4) This test was used to confirm the cytotoxicity of the test samples. The cancer cells after exposure to crude ethanolic extracts and active compounds for 48 h were harvested and washed with ice-cold PBS, pH 7.4 for 3 times. Then, the cells were resuspended with PBS, pH 7.4. The cell suspensions were diluted with PBS, pH 7.4 at the appropriate dilution before being mixed with 0.2% trypan blue solution at 1:2 dilution for cell count on a hemocytometer. From this test, the viable cells and the dead cells could also be obviously detected.
as §4, with “crude ethanolic extracts and active compounds. KG-1a” for “the test samples. The cancer”

[4] = tested on: RAW264.7 cells; experiment: Cytotoxicity (IC20, cell viability) in RAW264.7 cells; type: cell-based; conditions: Mus musculus, RAW264.7; incubation for 48 h; read-out: IC20 RAW264.7 (inhibitory concentration at 20% growth)
Method: MTT (3-(4,5-dimethylthiazol-2-yl)-2,5-diphenyltetrazolium bromide) assay was used to investigate the cytotoxicity of the test samples. […] After that, 5 mg/mL of MTT dye solution (Sigma-Aldrich, MA, USA) was added and incubated for 4 h. The produced formazan crystals were dissolved in 200 μL of DMSO (Sigma-Aldrich, MA, USA); then, the optical density (OD) was measured using an ELISA plate reader ([…], Taiwan) at 578 nm with a reference wavelength of 630 nm. The percentage of surviving cells was calculated from the absorbance values of the test and control wells using the following Equation. 1 [drawing 1] […] Afterward, supernatants were collected, and the levels of TNF-α and NO were measured using the Mouse TNF alpha Uncoated ELISA Kit (InvitrogenTM, ThermoFisher Scientific, MA, USA) and the Total Nitric Oxide Assay Kit (InvitrogenTM, ThermoFisher Scientific, MA, USA), respectively, according to the manufacturer's instructions.

[5] = Homo sapiens, KG-1a, 48 h, drugs, MTT, 48 h, read-out: IC50 KG-1a
[6] = Homo sapiens, KG-1a, Table S7, KG-1a, first replicate, read-out: IC50 value R1
[7] = Homo sapiens, KG-1a, Table S7, KG-1a, second replicate, read-out: IC50 value R2
[8] = Homo sapiens, KG-1a, Table S7, KG-1a, third replicate, read-out: IC50 value R3
[9] = Table S8, PBMCs, first replicate, read-out: IC50 value R1
[10] = Table S8, PBMCs, mean of R1-R3, read-out: IC50 value Mean
[11] = Table S8, PBMCs, second replicate, read-out: IC50 value R2
[12] = Table S8, PBMCs, third replicate, read-out: IC50 value R3
[13] = drugs, MTT, 48 h, read-out: IC50 PBMCs

| SMILES | IC50 [1, 5] [µg/mL] | IC50 [1, 6] [µg/mL] | IC50 [1, 7] [µg/mL] | IC50 [1, 8] [µg/mL] | Selectivity index (SI) ([1]; 48 h) | Selectivity index (SI) ([1]; 48 h, listed as doxorubicin) | IC50 [2, 9] [µg/mL] | IC50 [2, 10] [µg/mL] | IC50 [2, 11] [µg/mL] | IC50 [2, 12] [µg/mL] | IC50 [2, 13] [µg/mL] | IC50 ([1]; Homo sapiens, KG-1a, Table S7, KG-1a, mean of R1-R3, read-out: IC50 value Mean) [µg/mL] | decrease of total cell number compared to VC [3] [%] | normalized viable cell counts [3] | IC50 ([1]; Homo sapiens, KG-1a, 48 h, active compounds and drugs, MTT, 48 h, read-out: IC50 KG-1a) [µg/mL] | IC20 ([1]; Homo sapiens, KG-1a, 48 h, incubation for 48 h, read-out: IC20 KG-1a (inhibitory concentration at 20% growth)) [µg/mL] | IC20 [4] [µg/mL] | IC50 ([2]; active compounds and drugs, MTT, 48 h, read-out: IC50 PBMCs) [µg/mL] | IC20 ([2]; incubation for 48 h, read-out: IC20 PBMCs (inhibitory concentration at 20% growth)) [µg/mL] |
| --- | --- | --- | --- | --- | --- | --- | --- | --- | --- | --- | --- | --- | --- | --- | --- | --- | --- | --- | --- |
| COc1cccc2c1C(=O)c1c(O)c3c(c(O)c1C2=O)C[C@@](O)(C(=O)CO)C[C@@H]3O[C@H]1C[C@H](N)[C@H](O)[C@H](C)O1 [Doxorubicin, doxorubicin, reference compound] | 0.652 ± 0.142 (≈ 1.2 µM) | 0.807 (≈ 1.48 µM) | 0.622 (≈ 1.14 µM) | 0.528 (≈ 0.971 µM) | > 1.53 | greater than 1 | > 1 | > 1 | > 1 | > 1 | > 1 | – | – | – | – | – | – | – | – |
| CC(=O)[C@]1(O)Cc2c(O)c3c(c(O)c2[C@@H](O[C@H]2C[C@H](N)[C@H](O)[C@H](C)O2)C1)C(=O)c1ccccc1C3=O [Idarubicin, idarubicin, reference compound] | 0.0313 ± 0.00504 (≈ 0.0629 µM) | 0.0259 (≈ 0.052 µM) | 0.0318 (≈ 0.0639 µM) | 0.026 (≈ 0.0522 µM) | – | – | > 1 | > 1 | > 1 | > 1 | > 1 | 0.0279 (≈ 0.0561 µM) | – | – | – | – | – | – | – |
| O=C(/C=C/c1ccc(O)cc1)CC(=O)/C=C/c1ccc(O)cc1 [Bisdemethoxycurcumin, bisdemethoxycurcumin] | – | 17.1 (≈ 55.6 µM) | 17.6 (≈ 57 µM) | 19 (≈ 61.7 µM) | 0.65 | – | 12.6 (≈ 40.7 µM) | – | 12.2 (≈ 39.4 µM) | 10.2 (≈ 33.1 µM) | – | – | 47.21 ± 7.98 | 962.81 ± 19.30 × 10^3 cells per 1 million total cells | 17.9 ± 0.99 (≈ 58.1 µM) | 7.97 ± 2.07 (≈ 25.8 µM) | 2.71 ± 0.62 (≈ 8.79 µM) | 11.6 ± 1.25 (≈ 37.8 µM) | 6.9 ± 1.59 (≈ 22.4 µM) |
